molecular target: T1, recombinant His-tag Y220C p53 DBD protein (Homo sapiens, UniProt P04637, Y220C); experiment: In vitro DNA binding activity assay (TR-FRET): binding of His-tag Y220C p53 DBD to biotin-labeled consensus DNA; format: biochemical; settings: SC150 = concentration to increase DNA binding by […], His-tag Y220C p53 DBD, biotin-labeled consensus DNA
T1 construct: recombinant His-tag Y220C p53 DBD protein (amino acids #˜94-312)

With CN1CC[C@@H](Nc2cccc3c2cc(-c2ncc(CN)s2)n3CC(F)(F)F)[C@@H](F)C1 (racemic) [Compound 96B, (+/−)-2-[5-(aminomethyl)-1,3-thiazol-2-yl]-N-[(3R,4S)-3-fluoro-1-methylpiperidin-4-yl]-1-(2,2,2-trifluoroethyl)-1H-indol-4-amine] as the molecule, how does the “Y220C SC150 (μM)” value read?
The value was “**** (**** = 1 μM ≤ SC150 < 10 μM)”.

How did the “Y220C SC150 (μM)” value turn out when CN1CC[C@H](F)[C@H](Nc2cccc3c2cc(-c2noc(CNC(=O)c4ccn(C(C)(C)C)c4)n2)n3CC(F)(F)F)C1 (racemic) [Compound 389B, rac-1-tert-butyl-N-{[3-(4-{[(3R,4S)-4-fluoro-1-methylpiperidin-3-yl]amino}-1-(2,2,2-trifluoroethyl)-1H-indol-2-yl)-1,2,4-oxadiazol-5-yl]methyl}-1H-pyrrole-3-carboxamide] was run?
The value was “* (* = 0 μM ≤ SC150 < 0.1 μM)”.

For CN1CC[C@@H](Nc2cccc3c2cc(-c2noc(CNc4nccc5sccc45)n2)n3CC(F)(F)F)[C@@H](F)C1 [Compound 457B, N-[(3S,4R)-3-fluoro-1-methylpiperidin-4-yl]-2-{5-[({thieno[3,2-c]pyridin-4-yl}amino)methyl]-1,2,4-oxadiazol-3-yl}-1-(2,2,2-trifluoroethyl)-1H-indol-4-amine], which “Y220C SC150 (μM)” value is on record?
Its value is “* (* = 0 μM ≤ SC150 < 0.1 μM)”.

How did the “Y220C SC150 (μM)” value turn out when COCCn1ccc(C(=O)NCc2nc(-c3cc4c(N[C@@H]5CCN(C)C[C@@H]5F)cccc4n3CC(F)(F)F)no2)c1 [Compound 198B, N-{[3-(4-{[(3S,4R)-3-fluoro-1-methylpiperidin-4-yl]amino}-1-(2,2,2-trifluoroethyl)-1H-indol-2-yl)-1,2,4-oxadiazol-5-yl]methyl}-1-(2-methoxyethyl)-1H-pyrrole-3-carboxamide] was run?
The value was “* (* = 0 μM ≤ SC150 < 0.1 μM)”.

Which “Y220C SC150 (μM)” value does the source give for CN1CC[C@@H](Nc2cccc3c2cc(-c2noc(CNC(=O)c4ccn(C5(C)CCOC5)c4)n2)n3CC(F)(F)F)[C@@H](F)C1 (stereo partly drawn) [Compound 401B, N-{[3-(4-{[(3S,4R)-3-fluoro-1-methylpiperidin-4-yl]amino}-1-(2,2,2-trifluoroethyl)-1H-indol-2-yl)-1,2,4-oxadiazol-5-yl]methyl}-1-(3-methyloxolan-3-yl)-1H-pyrrole-3-carboxamide] here?
Its value is “* (* = 0 μM ≤ SC150 < 0.1 μM)”.

How did the “Y220C SC150 (μM)” value turn out when CC1(n2ccc(C(=O)NCc3nc(-c4cc5c(N[C@H]6CCNC[C@H]6F)cccc5n4CC(F)(F)F)no3)c2)CCOCC1 [Compound 478B, N-{[3-(4-{[(3R,4S)-3-fluoropiperidin-4-yl]amino}-1-(2,2,2-trifluoroethyl)-1H-indol-2-yl)-1,2,4-oxadiazol-5-yl]methyl}-1-(4-methyloxan-4-yl)-1H-pyrrole-3-carboxamide] was run?
Its value is “* (* = 0 μM ≤ SC150 < 0.1 μM)”.

CN1CC[C@@H](Nc2cccc3c2cc(-c2noc(CNC(=O)c4ccc(N5CCOCC5)cc4)n2)n3CC(F)(F)F)[C@@H](F)C1 [Compound 260B, N-{[3-(4-{[(3S,4R)-3-fluoro-1-methylpiperidin-4-yl]amino}-1-(2,2,2-trifluoroethyl)-1H-indol-2-yl)-1,2,4-oxadiazol-5-yl]methyl}-4-(morpholin-4-yl)benzamide] was tested. Which “Y220C SC150 (μM)” value did it give?
Its value is “* (* = 0 μM ≤ SC150 < 0.1 μM)”.

Which “Y220C SC150 (μM)” value does the source give for CN1CC[C@@H](Nc2cccc3c2cc(-c2noc(CNC(=O)c4ccn(C5CCCC5OCCF)c4)n2)n3CC(F)(F)F)[C@@H](F)C1 (stereo in doubt) [Compound 381B, N-{[3-(4-{[(3S,4R)-3-fluoro-1-methylpiperidin-4-yl]amino}-1-(2,2,2-trifluoroethyl)-1H-indol-2-yl)-1,2,4-oxadiazol-5-yl]methyl}-1-[(1R,2R)-2-(2-fluoroethoxy)cyclopentyl]-1H-pyrrole-3-carboxamide] here?
The value was “* (* = 0 μM ≤ SC150 < 0.1 μM)”.

For O=C(NCc1nc(-c2cc3c(NC4CCN(Cc5ccccc5)CC4)cccc3n2CC(F)(F)F)no1)C1CC1 [Compound 163B, N-[(3-{4-[(1-benzylpiperidin-4-yl)amino]-1-(2,2,2-trifluoroethyl)-1H-indol-2-yl}-1,2,4-oxadiazol-5-yl)methyl]cyclopropanecarboxamide], which “Y220C SC150 (μM)” value is on record?
The value was “* (* = 0 μM ≤ SC150 < 0.1 μM)”.

Source: patent publication US11807644B2 (PMV Pharmaceuticals, Inc., priority 2020, dated 2023)
